Test results from BindingDB's records for doi:10.1021/jm00126a022 (University of South Alabama, 1989).

Molecular target: GAR formyltransferase (Lactobacillus casei)
Test: Inhibition of the GAR formyl transferase in lactobacillus casei

Compound CC(Cc1ccc(C(=O)NC(CCC(=O)O)C(=O)O)cc1)Cc1cnc2nc(N)[nH]c(=O)c2n1 (stereo unspecified) has an IC50 greater than 20 µM.
